Earlier results as cited in patent US20130197188A1 (priority 2010, published 2013).

Legend:
[1] = system: patients with moderate asthma affliction; conditions: brief infusion; healthy and diseased subjects
[2] = system: patients with acute decompensated heart failure (ADHF)
[3] = system: patients with chronic congestive heart failure; conditions: 15 ng/kg/min, 10-hour infusion; loss of action during infusion

For urodilatin, the effect on bronchoconstriction [1] is given as “biologically relevant effectiveness”, the “changes of the baseline in pulmonary capillary wedge pressure (PCWP)” value ([2]; 15+30 ng/kg/min, compared with the placebo group, FIG. 4A) is given as “significant reductions” and the “changes of the cardiac index (CI)” value ([2]; 15 and 30 ng/kg/min, FIG. 4C) is given as “significant increase”. For the same substance, the “persistence of the effect on PCWP and CI (rebound)” value ([2]; during infusion, slight increase of PCWP and partial drop of CI) was “slightly reversed after 6 to 8 hours”, the “symptoms, morbidity and mortality” value ([2]; for all doses) was “significantly improved” and the “therapeutic window (dose)” value ([2]; intermediate dose applied) was “about 15 ng/kg/min”. The “central venous pressure (CVP)” value [3] was “increases slightly already after 5 hours of infusion” and the urine flow [3] was “loss of action after 8 hours of infusion”.
